According to ChEMBL document CHEMBL4507273 (2021):

How the values were obtained:
[1] = molecular target: Phosphatidylinositol 4-kinase beta (Homo sapiens) (UniProt Q9UBF8); settings: Compound concentration 1000.0 nM
[2] = molecular target: Guanine nucleotide exchange factor DBS (Homo sapiens, UniProt O15068); test: CDC42 activation by DBS assay
[3] = molecular target: T1, Testis-specific serine/threonine-protein kinase 1 (Homo sapiens) (UniProt Q9BXA7); settings: Compound concentration 1000.0 nM
T1 sequence (whole entry): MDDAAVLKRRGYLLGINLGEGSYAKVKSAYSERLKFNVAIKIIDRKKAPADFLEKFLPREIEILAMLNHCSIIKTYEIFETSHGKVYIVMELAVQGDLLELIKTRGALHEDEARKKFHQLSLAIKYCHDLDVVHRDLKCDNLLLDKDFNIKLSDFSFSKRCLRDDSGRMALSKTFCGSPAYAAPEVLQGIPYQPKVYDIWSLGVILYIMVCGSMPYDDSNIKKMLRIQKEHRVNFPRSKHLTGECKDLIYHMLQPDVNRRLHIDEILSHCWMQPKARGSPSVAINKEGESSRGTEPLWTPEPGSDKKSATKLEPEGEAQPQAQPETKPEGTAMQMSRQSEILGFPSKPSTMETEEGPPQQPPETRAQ

[4] = molecular target: Kappa-type opioid receptor (Homo sapiens, UniProt P41145); settings: Compound concentration 10.0 uM
[5] = molecular target: GABA-A receptor; anion channel (Rattus norvegicus) (UniProt O09028+P15431+P18506+P18508+P19969+P20236+P23574+P23576+P28471+P28473+P30191+P62813+P63079+P63138+Q91ZM7+Q9ES14); settings: Compound concentration 10.0 uM
[6] = test system: Receptor-type tyrosine-protein kinase FLT3 (Homo sapiens), P36888 [K663Q]; settings: Compound concentration 1000.0 nM
[7] = molecular target: Peripheral plasma membrane protein CASK (Homo sapiens) (UniProt O14936); settings: Compound concentration 1000.0 nM
[8] = molecular target: D(1B) dopamine receptor (Homo sapiens) (UniProt P21918); settings: Compound concentration 10.0 uM
[9] = molecular target: Phosphatidylinositol 4,5-bisphosphate 3-kinase catalytic subunit alpha isoform (Homo sapiens) (UniProt P42336); settings: Compound concentration 1000.0 nM
[10] = test system: Receptor-type tyrosine-protein kinase FLT3 (Homo sapiens), P36888 [UNDEFINED MUTATION]; settings: Compound concentration 1000.0 nM
[11] = molecular target: MAP kinase-activated protein kinase 2 (Homo sapiens) (UniProt P49137); settings: Compound concentration 1000.0 nM
[12] = molecular target: Cyclin-dependent kinase 4 (Homo sapiens) (UniProt P11802); settings: Compound concentration 1000.0 nM
[13] = test system: Phosphatidylinositol 4,5-bisphosphate 3-kinase catalytic subunit alpha isoform (Homo sapiens), P42336 [E545K]; settings: Compound concentration 1000.0 nM
[14] = molecular target: MAP/microtubule affinity-regulating kinase 3 (Homo sapiens) (UniProt P27448); settings: Compound concentration 1000.0 nM
[15] = molecular target: Eukaryotic translation initiation factor 2-alpha kinase 1 (Homo sapiens) (UniProt Q9BQI3); settings: Compound concentration 1000.0 nM
[16] = molecular target: Tyrosine-protein kinase Fer (Homo sapiens) (UniProt P16591); settings: Compound concentration 1000.0 nM
Tyrosine-protein kinase Fer (Homo sapiens), sequence (P16591 whole entry, looked up): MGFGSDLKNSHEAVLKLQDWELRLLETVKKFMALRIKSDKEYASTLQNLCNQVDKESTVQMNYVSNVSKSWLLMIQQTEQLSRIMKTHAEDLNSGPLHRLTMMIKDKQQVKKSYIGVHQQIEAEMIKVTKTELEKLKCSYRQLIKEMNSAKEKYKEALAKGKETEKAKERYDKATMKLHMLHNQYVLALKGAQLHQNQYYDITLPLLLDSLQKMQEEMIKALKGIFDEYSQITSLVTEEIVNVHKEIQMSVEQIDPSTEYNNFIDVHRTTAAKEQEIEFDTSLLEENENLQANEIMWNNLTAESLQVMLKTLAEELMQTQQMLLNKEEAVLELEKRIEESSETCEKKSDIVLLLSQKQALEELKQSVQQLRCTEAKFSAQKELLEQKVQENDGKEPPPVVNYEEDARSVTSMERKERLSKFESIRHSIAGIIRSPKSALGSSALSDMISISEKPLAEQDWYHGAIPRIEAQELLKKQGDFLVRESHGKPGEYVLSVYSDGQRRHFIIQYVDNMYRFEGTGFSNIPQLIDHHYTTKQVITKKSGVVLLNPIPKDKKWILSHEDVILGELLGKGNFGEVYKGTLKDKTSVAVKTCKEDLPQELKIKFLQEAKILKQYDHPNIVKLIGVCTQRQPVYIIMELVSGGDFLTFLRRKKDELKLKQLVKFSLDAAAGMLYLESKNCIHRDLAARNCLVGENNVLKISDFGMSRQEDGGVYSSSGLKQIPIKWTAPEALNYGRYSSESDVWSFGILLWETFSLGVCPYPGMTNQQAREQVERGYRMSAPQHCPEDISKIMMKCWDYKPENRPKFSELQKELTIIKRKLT

[17] = molecular target: 5-hydroxytryptamine receptor 1E (Homo sapiens) (UniProt P28566); settings: Compound concentration 10.0 uM
[18] = molecular target: Myosin-IIIa (Homo sapiens) (UniProt Q8NEV4); settings: Compound concentration 1000.0 nM
[19] = molecular target: Serine/threonine-protein kinase TAO1 (Homo sapiens) (UniProt Q7L7X3); settings: Compound concentration 1000.0 nM
[20] = molecular target: Myosin light chain kinase family member 4 (Homo sapiens) (UniProt Q86YV6); settings: Compound concentration 1000.0 nM
[21] = molecular target: Epidermal growth factor receptor (Homo sapiens, UniProt P00533); settings: Compound concentration 1000.0 nM
[22] = molecular target: Interleukin-1 receptor-associated kinase 1 (Homo sapiens) (UniProt P51617); settings: Compound concentration 1000.0 nM
[23] = molecular target: Interleukin-1 receptor-associated kinase 3 (Homo sapiens) (UniProt Q9Y616); settings: Compound concentration 1000.0 nM
[24] = molecular target: Cyclin-dependent kinase 15 (Homo sapiens) (UniProt Q96Q40); settings: Compound concentration 1000.0 nM
Mu-type opioid receptor = Mu-type opioid receptor (Homo sapiens, UniProt P35372); settings: Compound concentration 10.0 uM
[25] = molecular target: Serine/threonine-protein kinase Nek7 (Homo sapiens) (UniProt Q8TDX7); settings: Compound concentration 1000.0 nM
[26] = test system: Epidermal growth factor receptor (Homo sapiens), P00533 [G719C]; settings: Compound concentration 1000.0 nM
[27] = molecular target: Muscarinic acetylcholine receptor M2 (Homo sapiens) (UniProt P08172); settings: Compound concentration 10.0 uM
[28] = test system: Tyrosine-protein kinase ABL1 (Homo sapiens), P00519 [Q252H]; settings: Compound concentration 1000.0 nM
[29] = molecular target: Receptor tyrosine-protein kinase erbB-2 (Homo sapiens) (UniProt P04626); settings: Compound concentration 1000.0 nM
Receptor tyrosine-protein kinase erbB-2 (Homo sapiens), sequence (P04626 whole entry): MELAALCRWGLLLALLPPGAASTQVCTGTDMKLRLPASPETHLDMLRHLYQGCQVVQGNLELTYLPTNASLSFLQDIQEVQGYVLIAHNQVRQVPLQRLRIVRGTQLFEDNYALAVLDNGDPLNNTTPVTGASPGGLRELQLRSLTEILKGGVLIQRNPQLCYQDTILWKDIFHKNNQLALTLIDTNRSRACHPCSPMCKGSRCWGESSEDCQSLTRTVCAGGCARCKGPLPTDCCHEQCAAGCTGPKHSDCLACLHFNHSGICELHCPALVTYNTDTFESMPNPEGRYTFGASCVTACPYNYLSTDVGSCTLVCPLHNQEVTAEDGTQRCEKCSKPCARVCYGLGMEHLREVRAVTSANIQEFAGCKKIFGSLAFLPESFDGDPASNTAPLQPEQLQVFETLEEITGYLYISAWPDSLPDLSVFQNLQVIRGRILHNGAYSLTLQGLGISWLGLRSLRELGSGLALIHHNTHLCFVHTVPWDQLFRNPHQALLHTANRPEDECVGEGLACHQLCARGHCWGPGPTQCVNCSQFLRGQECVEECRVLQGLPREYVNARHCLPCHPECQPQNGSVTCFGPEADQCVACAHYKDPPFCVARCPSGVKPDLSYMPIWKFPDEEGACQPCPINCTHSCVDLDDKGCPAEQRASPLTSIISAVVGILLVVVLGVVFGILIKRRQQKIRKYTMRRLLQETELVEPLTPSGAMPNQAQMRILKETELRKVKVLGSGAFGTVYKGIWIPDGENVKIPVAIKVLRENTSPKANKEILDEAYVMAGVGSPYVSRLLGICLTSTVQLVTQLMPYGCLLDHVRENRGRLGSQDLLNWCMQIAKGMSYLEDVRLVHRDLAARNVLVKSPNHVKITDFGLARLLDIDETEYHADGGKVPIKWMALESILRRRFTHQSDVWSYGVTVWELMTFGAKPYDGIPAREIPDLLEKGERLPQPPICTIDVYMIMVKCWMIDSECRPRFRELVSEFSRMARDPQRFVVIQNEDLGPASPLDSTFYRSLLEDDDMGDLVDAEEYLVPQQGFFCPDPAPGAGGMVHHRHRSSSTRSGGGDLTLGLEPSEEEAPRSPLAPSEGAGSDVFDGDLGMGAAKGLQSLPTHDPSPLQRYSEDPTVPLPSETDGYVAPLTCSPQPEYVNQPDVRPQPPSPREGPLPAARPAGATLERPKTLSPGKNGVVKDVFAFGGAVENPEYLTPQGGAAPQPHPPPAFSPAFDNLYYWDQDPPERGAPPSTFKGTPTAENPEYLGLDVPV

[30] = molecular target: Insulin receptor-related protein (Homo sapiens) (UniProt P14616); settings: Compound concentration 1000.0 nM
Insulin receptor-related protein (Homo sapiens), sequence (P14616 27-742 limits assumed): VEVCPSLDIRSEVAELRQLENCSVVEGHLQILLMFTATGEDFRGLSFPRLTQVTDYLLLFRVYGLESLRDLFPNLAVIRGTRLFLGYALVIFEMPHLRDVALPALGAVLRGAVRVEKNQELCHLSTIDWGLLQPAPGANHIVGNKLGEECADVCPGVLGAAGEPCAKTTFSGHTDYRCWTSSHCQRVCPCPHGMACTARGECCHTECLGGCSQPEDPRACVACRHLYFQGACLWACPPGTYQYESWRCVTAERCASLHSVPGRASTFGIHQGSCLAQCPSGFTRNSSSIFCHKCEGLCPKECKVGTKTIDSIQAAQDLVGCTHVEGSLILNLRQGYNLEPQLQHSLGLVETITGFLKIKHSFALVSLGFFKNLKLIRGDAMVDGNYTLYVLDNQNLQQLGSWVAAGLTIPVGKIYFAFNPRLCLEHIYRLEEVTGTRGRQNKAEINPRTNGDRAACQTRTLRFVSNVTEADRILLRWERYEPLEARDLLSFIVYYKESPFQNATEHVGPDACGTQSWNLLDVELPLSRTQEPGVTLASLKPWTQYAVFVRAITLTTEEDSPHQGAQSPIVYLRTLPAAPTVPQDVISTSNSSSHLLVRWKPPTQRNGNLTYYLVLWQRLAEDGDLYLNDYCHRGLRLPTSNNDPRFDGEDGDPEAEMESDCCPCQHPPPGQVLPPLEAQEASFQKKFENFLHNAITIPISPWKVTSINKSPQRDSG
Insulin receptor-related protein (Homo sapiens), sequence (P14616 747-1297 limits assumed): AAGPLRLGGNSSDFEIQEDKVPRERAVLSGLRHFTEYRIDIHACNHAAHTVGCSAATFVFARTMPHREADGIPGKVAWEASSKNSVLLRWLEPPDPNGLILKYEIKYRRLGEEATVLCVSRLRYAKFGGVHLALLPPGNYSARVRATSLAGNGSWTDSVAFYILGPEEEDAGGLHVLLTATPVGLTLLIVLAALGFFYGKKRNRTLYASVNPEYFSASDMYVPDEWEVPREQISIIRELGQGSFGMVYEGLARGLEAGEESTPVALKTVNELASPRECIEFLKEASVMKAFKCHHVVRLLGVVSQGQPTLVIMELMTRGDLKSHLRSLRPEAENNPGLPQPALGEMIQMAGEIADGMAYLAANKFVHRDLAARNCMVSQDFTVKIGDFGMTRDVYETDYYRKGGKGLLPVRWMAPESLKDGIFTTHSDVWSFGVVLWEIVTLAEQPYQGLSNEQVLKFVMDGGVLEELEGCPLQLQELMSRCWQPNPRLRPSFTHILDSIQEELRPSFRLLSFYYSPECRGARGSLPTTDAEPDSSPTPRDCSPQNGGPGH

[31] = test system: Receptor-type tyrosine-protein kinase FLT3 (Homo sapiens), P36888 [N841I]; settings: Compound concentration 1000.0 nM
[32] = molecular target: Serine/threonine-protein kinase 38 (Homo sapiens) (UniProt Q15208); settings: Compound concentration 1000.0 nM
[33] = molecular target: Ephrin type-A receptor 3 (Homo sapiens) (UniProt P29320); settings: Compound concentration 1000.0 nM
[34] = molecular target: Casein kinase II subunit alpha (Homo sapiens) (UniProt P68400); settings: Compound concentration 1000.0 nM
Casein kinase II subunit alpha (Homo sapiens), sequence (P68400 whole entry, looked up): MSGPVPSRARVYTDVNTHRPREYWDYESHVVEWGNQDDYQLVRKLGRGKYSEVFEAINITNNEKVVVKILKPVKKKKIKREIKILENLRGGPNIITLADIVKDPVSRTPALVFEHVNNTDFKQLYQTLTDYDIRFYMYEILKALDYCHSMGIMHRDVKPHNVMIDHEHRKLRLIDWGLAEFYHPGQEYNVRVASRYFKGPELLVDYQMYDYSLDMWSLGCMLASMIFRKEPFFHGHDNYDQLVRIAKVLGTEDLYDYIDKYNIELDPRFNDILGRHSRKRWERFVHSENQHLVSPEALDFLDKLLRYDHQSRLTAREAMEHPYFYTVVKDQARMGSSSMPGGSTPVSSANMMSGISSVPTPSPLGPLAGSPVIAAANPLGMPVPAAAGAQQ

[35] = molecular target: Tyrosine-protein kinase JAK3 (Homo sapiens) (UniProt P52333); settings: Compound concentration 1000.0 nM
Tyrosine-protein kinase JAK3 (Homo sapiens), sequence (P52333 whole entry): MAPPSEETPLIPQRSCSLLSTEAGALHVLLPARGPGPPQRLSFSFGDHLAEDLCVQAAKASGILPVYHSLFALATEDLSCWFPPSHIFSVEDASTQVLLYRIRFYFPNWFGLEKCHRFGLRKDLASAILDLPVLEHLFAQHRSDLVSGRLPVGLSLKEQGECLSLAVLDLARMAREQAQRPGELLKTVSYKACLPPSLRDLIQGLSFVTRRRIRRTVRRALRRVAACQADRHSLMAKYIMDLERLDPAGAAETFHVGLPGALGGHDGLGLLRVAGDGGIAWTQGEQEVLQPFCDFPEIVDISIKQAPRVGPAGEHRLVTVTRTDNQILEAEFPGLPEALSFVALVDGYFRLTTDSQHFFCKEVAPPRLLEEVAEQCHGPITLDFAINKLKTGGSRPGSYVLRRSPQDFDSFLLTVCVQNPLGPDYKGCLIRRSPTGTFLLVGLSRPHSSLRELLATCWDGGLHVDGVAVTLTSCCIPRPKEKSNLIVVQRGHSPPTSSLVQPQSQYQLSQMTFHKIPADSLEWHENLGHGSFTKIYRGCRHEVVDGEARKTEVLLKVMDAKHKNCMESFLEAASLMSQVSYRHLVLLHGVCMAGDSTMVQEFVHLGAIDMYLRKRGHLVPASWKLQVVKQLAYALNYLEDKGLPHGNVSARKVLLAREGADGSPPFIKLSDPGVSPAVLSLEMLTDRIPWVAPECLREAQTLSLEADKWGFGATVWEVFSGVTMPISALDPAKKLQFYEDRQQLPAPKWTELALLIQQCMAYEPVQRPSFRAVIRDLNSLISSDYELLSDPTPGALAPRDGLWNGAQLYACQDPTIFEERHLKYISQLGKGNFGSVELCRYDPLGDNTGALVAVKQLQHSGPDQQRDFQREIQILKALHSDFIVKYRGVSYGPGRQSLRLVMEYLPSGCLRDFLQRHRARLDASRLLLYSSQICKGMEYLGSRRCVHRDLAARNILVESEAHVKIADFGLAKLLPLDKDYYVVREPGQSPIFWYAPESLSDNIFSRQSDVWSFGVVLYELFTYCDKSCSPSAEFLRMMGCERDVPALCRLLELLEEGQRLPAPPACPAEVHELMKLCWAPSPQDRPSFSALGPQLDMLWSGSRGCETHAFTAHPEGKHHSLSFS

[36] = molecular target: Serine/threonine-protein kinase Nek1 (Homo sapiens) (UniProt Q96PY6); settings: Compound concentration 1000.0 nM
[37] = molecular target: Muscarinic acetylcholine receptor M5 (Homo sapiens) (UniProt P08912); settings: Compound concentration 10.0 uM
[38] = molecular target: Serine/threonine-protein kinase ULK2 (Homo sapiens) (UniProt Q8IYT8); settings: Compound concentration 1000.0 nM

Compound | residual activity [1] [%] | IC50 [2] | residual activity [3] [%] | inhibition [4] [%] | inhibition [5] [%] | residual activity [6] [%] | residual activity [7] [%] | inhibition [8] [%] | residual activity [9] [%] | residual activity [10] [%] | residual activity [11] [%] | residual activity [12] [%] | residual activity [13] [%] | residual activity [14] [%] | residual activity [15] [%] | residual activity [16] [%] | inhibition [17] [%] | residual activity [18] [%] | residual activity [19] [%] | residual activity [20] [%] | further results
CNCc1ccccc1-c1csc([C@H](C)Nc2nc(C)nc3cc(OC)c(OC)cc23)c1 [BAY-294] | 74 | > 20 µM (not active) | 93 | 64.4 | -1.27 | 93 | 71 | 36.6 | 71 | 81 | 80 | 77 | 75 | 100 | 100 | 100 | 10.8 | 100 | 100 | 100 | residual activity [21]: 100%; residual activity [22]: 80%; residual activity [23]: 83%; residual activity [24]: 100%; inhibition (Mu-type opioid receptor): 67.3%; residual activity [25]: 100%; residual activity [26]: 85%; inhibition [27]: 65.4%; residual activity [28]: 76%; residual activity [29]: 100%; residual activity [30]: 93%; residual activity [31]: 100%; residual activity [32]: 87%; residual activity [33]: 100%; residual activity [34]: 91%; residual activity [35]: 99%; residual activity [36]: 100%; inhibition [37]: 54.1%; residual activity [38]: 100%
CNCc1ccccc1-c1csc([C@@H](C)Nc2nc(C)nc3cc(OC)c(OC)cc23)c1 [BAY-293] | 82 | > 20 µM (not active) | 59 | 26.9 | 0.89 | 77 | 81 | 32.5 | 69 | 48 | 83 | 88 | 78 | 89 | 100 | 100 | 5.81 | 100 | 95 | 99 | residual activity [21]: 90%; residual activity [22]: 71%; residual activity [23]: 75%; residual activity [24]: 100%; inhibition (Mu-type opioid receptor): 46.8%; residual activity [25]: 100%; residual activity [26]: 63%; inhibition [27]: 74.2%; residual activity [28]: 69%; residual activity [29]: 84%; residual activity [30]: 95%; residual activity [31]: 77%; residual activity [32]: 60%; residual activity [33]: 87%; residual activity [34]: 83%; residual activity [35]: 94%; residual activity [36]: 91%; inhibition [37]: 64.8%; residual activity [38]: 100%
